# From patent US20240409536A1, “COMPOUNDS AND METHODS FOR MODULATING SPLICING” (REMIX THERAPEUTICS INC., priority 2021, published 2024)
# Columns and labels:
# Target C mRNA = assay: Gene panel canonical junction qPCR assay, Target C CJ mRNA decrease; format: cell-based; settings: Homo sapiens, canonical junction qPCR, read-out: Target C IC50 (decrease in CJ mRNA levels)
# In short: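 A673 or K562 cells treated with compound; canonical exon-exon junction mRNA quantified by cDNA synthesis and RT-qPCR with junction-spanning primer/probe, normalized to GAPDH, GUSB or PPIA and DMSO (2^(−ΔΔCt)). Percent response from set ΔCt assay windows fitted to 4-parameter logistic; IC50 for CJ decrease.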
# HiBiT-tagged MYB protein = assay: HiBiT protein abundance assay, MYB (K562 HiBiT knock-in cells); format: cell-based, human; settings: 24 hours
# Description: Compounds described herein were used to screen for effects on quantitative protein abundance using a HiBit assay system (Promega). Quantitative protein abundance was determined by measuring the protein levels of HiBit-tagged protein targets expressed in cell culture via luminescence using the Nano-Glo HiBiT Lytic Detection System, which uses a split complementation assay format to reconstitute NanoBiT enzyme to generate a luminescent signal. A protein abundance assay was developed such that endogenous protein targets could be modified with the HiBiT peptide tag and their abundance could be assessed after compound treatment. Briefly, K562 cell lines containing a HiBiT-modification were treated with various compounds described herein (e.g., compounds of Formulas (I), (II), or (III)). After treatment for 24 hours, the protein abundance of a specific target was determined by measuring luminescence.
# • Promega Nano-Glo HiBiT Lytic Detection System (cat #N3030) • Corning 384-well TC-treated microplates (cat #3570) • Synthego Engineered Cells Knock-In Clones
# Cells were maintained in IMDM with 10% FBS. Before the assay, cells were diluted with […] growth media (IMDM+1% FBS media) and were seeded in a 384-well plate at a density of 10000 cells/well (for each cell line listed in Table 6). Each compound was prepared as a 10-point 3-fold serial dilution in DMSO with the top dose at a final concentration of 10 μM in the well. Unmodified K562 cells were added at the previously specified density with DMSO to serve as an assay baseline and positive control (PC) and DMSO only with the respective modified cell lines was added to the negative control (NC) columns. Final DMSO concentration was kept at or below 0.25%. Treated cell plates were placed in an incubator at 37° C. with 5% CO2 for 24 hours. After 24 hours, 25 μL of Complete HiBit Lytic reagent was added to each well at room temperature (e.g. one plate requiring 10 mL Lytic Buffer, 100 μL LgBiT Protein, 200 μL Lytic Substrate), shaken for 5 minutes at 600 RPM, then left to sit for 10 minutes for signal to stabilize before reading on a Spark Cyto plate reader (Tecan) with a 500 ms measurement time.
# To determine compound effects on protein abundance of each target in Table 6, the percent response for each respective cell line was calculated at each compound concentration as follows:
# For the normalized response at each concentration, a four-parameter logistical regression was fit to the data and the response was interpolated at the 50% value to determine a concentration for protein abundance at 50% (IC50) the untreated control.
Structure (SMILES),IC50 (Target C mRNA) [nM],IC50 (HiBiT-tagged MYB protein) [nM]
"Cc1cn2cc(NC(=O)c3ccc([C@@]45CCNCC4C5)c4nccnc34)cc(F)c2n1 (stereo in doubt) [Compound 248, 8-{3-azabicyclo[4.1.0]heptan-6-yl}-N-{8-fluoro-2-methylimidazo[1,2-a]pyridin-6-yl}quinoxaline-5-carboxamide 2,2,2-trifluoroacetate]",1000 to 10000,100 to 1000
Cc1cn2cc(NC(=O)c3ccc(N4CCNCC4)c4nccnc34)cc(F)c2n1 [Compound 111],1000 to 10000,< 100
Cc1cn2nc(NC(=O)c3ccc(C4CCNCC4)c4ccnnc34)cc(C)c2n1 [Compound 113],1000 to 10000,1000 to 10000
Cn1cc2ccc(NC(=O)c3ccc(N4CCNCC4)c4ccnnc34)cc2n1 [Compound 115],> 10000,> 10000
Cn1cc2c(F)cc(NC(=O)c3ccc(N4CCNCC4)c4ccnnc34)cc2n1 [Compound 116],> 10000,> 10000
Cc1nc2c(F)cc(NC(=O)c3ccc(N4CCNCC4)c4ccnnc34)cc2s1 [Compound 118],100 to 1000,< 100
Cc1cn2cc(NC(=O)c3ccc(N4CCNCC4)c4ccnnc34)c(C)cc2n1 [Compound 119],1000 to 10000,100 to 1000
Cc1cn2cc(NC(=O)c3ccc(N4CCNCC4)c4ccnnc34)ncc2n1 [Compound 120],> 10000,100 to 1000
CNC1CCN(c2ccc(C(=O)Nc3cc(F)c4nc(C)cn4c3)c3nc(OCCOC)ccc23)C1 (stereo not shown) [Compound 234],1000 to 10000,< 100
"CN[C@@H]1CCN(c2ccc(C(=O)Nc3cc(F)c4nc(C)cn4c3)c3nnccc23)C1 [Compound 238, (R)—N-(8-fluoro-2-methylimidazo[1,2-a]pyridin-6-yl)-5-(3-(methylamino)pyrrolidin-1-yl)cinnoline-8-carboxamide]",1000 to 10000,< 100
"CN[C@H]1CCN(c2ccc(C(=O)Nc3cc(F)c4nc(C)cn4c3)c3nnccc23)C1 [Compound 239, (S)—N-(8-fluoro-2-methylimidazo[1,2-a]pyridin-6-yl)-5-(3-(methylamino)pyrrolidin-1-yl)cinnoline-8-carboxamide]",1000 to 10000,< 100
"Cc1cn2cc(NC(=O)c3ccc(C4=CCNCC4)c4nccnc34)cc(F)c2n1 [Compound 240, N-{8-fluoro-2-methylimidazo[1,2-a]pyridin-6-yl}-8-(1,2,3,6-tetrahydropyridin-4-yl)quinoxaline-5-carboxamide]",100 to 1000,< 100
"Cc1cn2cc(NC(=O)c3ccc(N4CC[C@@H](N(C)C)C4)c4nccnc34)cc(F)c2n1 [Compound 242, 8-[(3R)-3-(dimethylamino)pyrrolidin-1-yl]-N-{8-fluoro-2-methylimidazo[1,2-a]pyridin-6-yl}quinoxaline-5-carboxamide]",> 10000,100 to 1000
"COc1cnc2c(N3CC[C@@H](N(C)C)C3)ccc(C(=O)Nc3cc(F)c4nc(C)cn4c3)c2n1 [Compound 244, 8-[(3R)-3-(dimethylamino)pyrrolidin-1-yl]-N-{8-fluoro-2-methylimidazo[1,2-a]pyridin-6-yl}-3-methoxyquinoxaline-5-carboxamide]",100 to 1000,< 100
Cc1cn2cc(NC(=O)c3ccc([C@H]4CCNC4)c4nccnc34)cc(F)c2n1 [Compound 246],> 10000,100 to 1000
"Cc1cn2cc(NC(=O)c3ccc(N4CCN[C@@H](C(C)C)C4)c4nccnc34)cc(F)c2n1 [Compound 250, N-{8-fluoro-2-methylimidazo[1,2-a]pyridin-6-yl}-8-[(3S)-3-isopropylpiperazin-1-yl]quinoxaline-5-carboxamide]",> 10000,100 to 1000
"Cc1cn2cc(NC(=O)c3ccc(N4CCN[C@@H](C5CC5)C4)c4nccnc34)cc(F)c2n1 [Compound 252, 8-[(3S)-3-cyclopropylpiperazin-1-yl]-N-{8-fluoro-2-methylimidazo[1,2-a]pyridin-6-yl}quinoxaline-5-carboxamide]",> 10000,100 to 1000
